# Measurements published in US8273527B2, “Viral variants” (priority 1999, dated 2012).
# How the values were obtained:
# HBV [1] = conditions: in vitro; cited from earlier work
# HBV [2] = assay: FCV prophylaxis liver transplantation trial (response pre-OLT, HBV recurrence post-OLT); type: in vivo, patients
# Source text: The clinical details of the FCV prophylaxis liver transplantation protocol as previously described (19). Briefly, the aim of the study was to compare the safety and efficacy of oral FCV and IV penciclovir in reducing the risk of hepatitis B re-infection post-OLT in liver transplant patients. The study design was a multicentre, randomized, part double-blind, part placebo controlled trial in patients with end stage liver disease requiring OLT. Patients with HBV DNA levels more than 90 pg/ml at study entry (by hybridization) [high replicators] were treated with both FCV and HBIG post-OLT. These high replicators were treated with FCV (500 mg tds) to reduce HBV DNA levels prior to OLT. Famciclovir treatment was continued for 12 months post-OLT. An untreated control group of patients with HBV DNA levels less than 90 pg/ml [low replicators] at study entry were treated with HBIG alone post-OLT. In the original study, thirty six patients underwent OLT, and of these the clinical and virological outcome of twenty-two of the FCV treated patients has recently been presented (17 Manns).
# Twenty six patients who had HBV levels more than 90 pg/ml at study entry (high HBV replicator [HR]) were treated with FCV pre-OLT and those patients who responded were then treated with HBIG plus FCV post-OLT. […]
# duck HBV virus = conditions: oral, in vivo; cited from earlier work
# HBV [3] = conditions: one patient with severe hepatitis B following OLT; cited from earlier work
# duck HBV = conditions: in vitro; cited from earlier work
# [4] = molecular target: HBV DNA polymerase-reverse transcriptase (Hepatitis B virus genotype D subtype ayw, UniProt P03156); conditions: in vitro; cited from earlier work
# HBV DNA polymerase-reverse transcriptase, sequence (P03156 whole entry): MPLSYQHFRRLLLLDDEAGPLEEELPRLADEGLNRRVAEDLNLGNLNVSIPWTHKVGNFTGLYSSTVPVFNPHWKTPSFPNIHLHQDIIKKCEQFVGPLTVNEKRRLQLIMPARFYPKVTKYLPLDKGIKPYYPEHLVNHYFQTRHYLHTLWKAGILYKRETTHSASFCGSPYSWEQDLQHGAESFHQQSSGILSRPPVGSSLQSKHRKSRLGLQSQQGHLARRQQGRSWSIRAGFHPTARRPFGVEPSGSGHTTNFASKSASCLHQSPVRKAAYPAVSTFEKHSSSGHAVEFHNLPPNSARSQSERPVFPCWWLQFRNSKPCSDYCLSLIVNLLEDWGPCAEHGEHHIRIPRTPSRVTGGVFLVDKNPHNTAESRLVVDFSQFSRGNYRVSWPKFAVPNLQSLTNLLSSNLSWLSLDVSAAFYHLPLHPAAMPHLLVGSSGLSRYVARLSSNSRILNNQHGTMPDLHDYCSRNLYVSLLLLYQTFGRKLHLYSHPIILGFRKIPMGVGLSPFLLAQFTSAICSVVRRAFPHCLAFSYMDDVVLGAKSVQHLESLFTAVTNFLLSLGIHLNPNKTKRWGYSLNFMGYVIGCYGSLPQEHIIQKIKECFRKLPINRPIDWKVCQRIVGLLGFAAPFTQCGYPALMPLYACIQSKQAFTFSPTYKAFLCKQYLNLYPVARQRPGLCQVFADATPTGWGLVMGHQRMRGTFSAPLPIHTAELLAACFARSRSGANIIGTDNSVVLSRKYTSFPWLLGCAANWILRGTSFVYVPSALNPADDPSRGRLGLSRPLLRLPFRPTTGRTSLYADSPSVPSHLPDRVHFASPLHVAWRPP
smiles,measurement,setting,value
Nc1ncnc2c1ncn2CCOCP(=O)(O)O [Adefovir],anti-HBV activity,HBV [1],effective anti-HBV activity
"CC(=O)OCC(CCn1cnc2cnc(N)nc21)COC(C)=O [FCV, famciclovir]",patients who responded to FCV,HBV [2]; of 26 high HBV replicators (HBV more than 90 pg/ml at study entry) treated with FCV pre-OLT,19 patients
same,patients who did not initially respond to FCV,HBV [2]; of the initial 26 high HBV replicators treated with FCV pre-OLT,6 patients
same,inhibition of intra-hepatic replication of duck HBV virus,duck HBV virus,inhibit
same,effect on HBV DNA replication,HBV [3],reduce HBV DNA replication
"Nc1nc2c(ncn2CCC(CO)CO)c(=O)[nH]1 [Penciclovir, penciclovir]",inhibitory activity against duck HBV DNA synthesis,duck HBV,potent inhibitory activity
same,inhibition of HBV DNA polymerase-reverse transcriptase activity,[4],inhibit
